Experimental data from ChEMBL document CHEMBL4420062, “Tfpi inhibitors and methods of use” (2013).
Where a SMILES comes first, the peptide text is derived from it. [ ]: non-standard residue; d: D form. Tle = CC(C)(C)[C@H](N)C(=O)O; Aib = CC(C)(N)C(=O)O

Columns and labels:
[1] = Stability in human plasma assessed as parent compound remaining after 24 hrs; format: ADME, cell-free; settings: read-out: Stability
[2] = Stability in mouse plasma assessed as parent compound remaining after 24 hrs; format: ADME, cell-free; settings: read-out: Stability

SMILES	remaining at 24 h [1] [%]	remaining at 24 h [2] [%]
CC(=O)N[C@@H](Cc1csc2ccccc12)C(=O)N[C@@H](CCC(N)=O)C(=O)N[C@@H](CO)C(=O)N[C@@H](CCCCN)C(=O)N1CCC[C@@H]1C(=O)N[C@@H](CC(N)=O)C(=O)N[C@H](C(=O)N[C@@H](Cc1cnc[nH]1)C(=O)N[C@H](C(=O)N[C@@H](CC(=O)O)C(=O)NCC(=O)N[C@@H](Cc1ccc(O)cc1)C(=O)N[C@@H](Cc1ccccc1)C(=O)N[C@@H](CCC(=O)O)C(=O)N[C@@H](CCCNC(=N)N)C(=O)N[C@@H](CC(C)C)C(=O)NC(C)(C)C(=O)N[C@@H](C)C(=O)N[C@@H](CCCCN)C(=O)N[C@@H](CC(C)C)C(N)=O)C(C)C)C(C)C	18.6	0
CC(=O)N[C@@H](Cc1ccccc1)C(=O)N[C@@H](CCC(N)=O)C(=O)N[C@@H](CO)C(=O)N[C@@H](CCCCN)C(=O)N1CCC[C@@H]1C(=O)N[C@@H](CC(N)=O)C(=O)N[C@H](C(=O)N[C@@H](Cc1cnc[nH]1)C(=O)N[C@H](C(=O)N[C@@H](CC(=O)O)C(=O)N[C@H](C)C(=O)N[C@@H](Cc1ccc(O)cc1)C(=O)N[C@@H](Cc1ccccc1)C(=O)N[C@@H](CCC(=O)O)C(=O)N[C@@H](CCCNC(=N)N)C(=O)N[C@@H](CC(C)C)C(=O)NC1(C(=O)N[C@@H](C)C(=O)N[C@@H](CCCCN)C(=O)N[C@@H](CC(C)C)C(N)=O)Cc2ccccc2C1)C(C)(C)C)C(C)C	104	53
CC(=O)N[C@@H](Cc1ccccc1)C(=O)N[C@@H](CCC(N)=O)C(=O)N[C@@H](CO)C(=O)N[C@@H](CCCCN)C(=O)N1CCC[C@@H]1C(=O)N[C@@H](CC(N)=O)C(=O)N[C@H](C(=O)N[C@@H](Cc1cnc[nH]1)C(=O)N[C@H](C(=O)N[C@@H](CC(=O)O)C(=O)N[C@H](C)C(=O)N[C@@H](Cc1ccc(O)cc1)C(=O)N[C@@H](Cc1ccccc1)C(=O)N[C@@H](CCC(=O)O)C(=O)N[C@@H](CCCNC(=N)N)C(=O)N[C@@H](CC(C)C)C(=O)NC(C)(C)C(=O)NC(C)(C)C(=O)N[C@@H](CCCCN)C(=O)N[C@@H](CC(C)C)C(N)=O)C(C)(C)C)C(C)C	99.2	85.9
CC(C)C[C@H](NC(=O)[C@H](CCCCN)NC(=O)[C@H](C)NC(=O)C(C)(C)NC(=O)[C@H](CC(C)C)NC(=O)[C@H](CCCNC(=N)N)NC(=O)[C@H](CCC(=O)O)NC(=O)[C@H](Cc1ccccc1)NC(=O)[C@H](Cc1ccc(O)cc1)NC(=O)[C@@H](C)NC(=O)[C@H](CC(=O)O)NC(=O)[C@@H](NC(=O)[C@H](Cc1cnc[nH]1)NC(=O)[C@@H](NC(=O)[C@H](CC(N)=O)NC(=O)[C@H]1CCCN1C(=O)[C@H](CCCCN)NC(=O)[C@H](CO)NC(=O)[C@H](CCC(N)=O)NC(=O)[C@H](Cc1ccccc1)NS(=O)(=O)c1cccc2ccccc12)C(C)C)C(C)(C)C)C(N)=O	107	52
CC(=O)N[C@@H](Cc1ccccc1)C(=O)N[C@@H](CCC(N)=O)C(=O)N[C@@H](CO)C(=O)N[C@@H](CCCCN)C(=O)N1CCC[C@@H]1C(=O)N[C@@H](CC(N)=O)C(=O)N[C@H](C(=O)N[C@@H](Cc1cnc[nH]1)C(=O)N[C@H](C(=O)N1CCC[C@H]1C(=O)N[C@H](CS)C(=O)N[C@@H](Cc1ccc(O)cc1)C(=O)N[C@@H](Cc1csc2ccccc12)C(=O)N[C@@H](CCS)C(=O)N[C@@H](CCCNC(=N)N)C(=O)N[C@@H](CC(C)C)C(=O)NC(C)(C)C(=O)N[C@H](C)C(=O)N[C@@H](CCCCN)C(=O)N[C@@H](CC(C)C)C(N)=O)C(C)C)C(C)C	77.7	28.3
CCCCCCCCCCCCCC(=O)NCCCOCCOCCOCCCNC(=O)CCNCCCC[C@H](NC(=O)[C@H](CC(C)C)NC(=O)[C@H](CCCCN)NC(=O)[C@H](C)NC(=O)C(C)(C)NC(=O)[C@H](CC(C)C)NC(=O)[C@H](CCCNC(=N)N)NC(=O)[C@H](CCC(=O)O)NC(=O)[C@H](Cc1ccccc1)NC(=O)[C@H](Cc1ccc(O)cc1)NC(=O)[C@@H](C)NC(=O)[C@H](CC(=O)O)NC(=O)[C@@H](NC(=O)[C@H](Cc1cnc[nH]1)NC(=O)[C@@H](NC(=O)[C@H](CSCNC(C)=O)NC(=O)[C@H]1CCCN1C(=O)[C@H](CCCCN)NC(=O)[C@H](CO)NC(=O)[C@H](CCC(N)=O)NC(=O)[C@H](Cc1ccccc1)NC(=O)CCCCC)C(C)C)C(C)(C)C)C(N)=O	96.5	67.5
CCCCCCCCCCCCCCCC(=O)NCCCOCCOCCOCCCNC(=O)CCNC(=O)CCC(=O)NCCCC[C@H](NC(=O)[C@H](CC(C)C)NC(=O)[C@H](CCCCN)NC(=O)[C@H](C)NC(=O)C(C)(C)NC(=O)[C@H](CC(C)C)NC(=O)[C@H](CCCNC(=N)N)NC(=O)[C@H](CCC(=O)O)NC(=O)[C@H](Cc1ccccc1)NC(=O)[C@H](Cc1ccc(O)cc1)NC(=O)[C@@H](C)NC(=O)[C@H](CC(=O)O)NC(=O)[C@@H](NC(=O)[C@H](Cc1cnc[nH]1)NC(=O)[C@@H](NC(=O)[C@H](CSCNC(C)=O)NC(=O)[C@H]1CCCN1C(=O)[C@H](CCCCN)NC(=O)[C@H](CO)NC(=O)[C@H](CCC(N)=O)NC(=O)[C@H](Cc1ccccc1)NC(=O)CCCCC)C(C)C)C(C)(C)C)C(N)=O	108	67.5
CCCCCC(=O)N[C@@H](Cc1ccccc1)C(=O)N[C@@H](CCC(N)=O)C(=O)N[C@@H](CO)C(=O)N[C@@H](CCCCN)C(=O)N1CCC[C@@H]1C(=O)N[C@@H](CC(N)=O)C(=O)N[C@H](C(=O)N[C@@H](Cc1cnc[nH]1)C(=O)N[C@H](C(=O)N[C@@H](CC(=O)O)C(=O)N[C@H](C)C(=O)N[C@@H](Cc1ccc(O)cc1)C(=O)N[C@@H](Cc1ccccc1)C(=O)N[C@@H](CCC(=O)O)C(=O)N[C@@H](CCCNC(=N)N)C(=O)N[C@@H](CC(C)C)C(=O)NC(C)(C)C(=O)N[C@@H](C)C(=O)N[C@@H](CCCCN)C(=O)N[C@@H](CC(C)C)C(N)=O)C(C)(C)C)C(C)C	97.4	39.9
CC(=O)N[C@@H](Cc1ccccc1)C(=O)N[C@@H](CCC(N)=O)C(=O)N[C@@H](CO)C(=O)N[C@@H](CCCCN)C(=O)N1CCC[C@@H]1C(=O)N[C@@H](CC(N)=O)C(=O)N[C@H](C(=O)N[C@@H](Cc1c[nH]cn1)C(=O)N[C@H](C(=O)N[C@@H](CC(=O)O)C(=O)NCC(=O)N[C@@H](Cc1ccc(O)cc1)C(=O)N[C@@H](Cc1ccccc1)C(=O)N[C@@H](CCC(=O)O)C(=O)N[C@@H](CCCNC(=N)N)C(=O)N[C@@H](CC(C)C)C(=O)NC(C)(C)C(=O)N[C@@H](C)C(=O)N[C@@H](CCCCN)C(=O)N[C@@H](CC(C)C)C(N)=O)C1CCCCC1)C(C)C	27.6	5.4
CC(C)C[C@@H]1NC(=O)[C@H](CCCCN)NC(=O)[C@H](C)NC(=O)C(C)(C)NC(=O)[C@H](CC(C)C)NC(=O)[C@H](CCCNC(=N)N)NC(=O)[C@H](CCC(=O)O)NC(=O)[C@H](Cc2ccccc2)NC(=O)[C@H](Cc2ccc(O)cc2)NC(=O)CNC(=O)[C@H](CC(=O)O)NC(=O)[C@H](C(C)C)NC(=O)[C@H](Cc2cnc[nH]2)NC(=O)[C@H](C(C)C)NC(=O)[C@H](CC(N)=O)NC(=O)[C@H]2CCCN2C(=O)[C@H](CCCCN)NC(=O)[C@H](CO)NC(=O)[C@H](CCC(N)=O)NC(=O)[C@H](Cc2ccccc2)NC(=O)CCOCCOCCOCCNC1=O	62.8	38.1
CC(=O)N[C@@H](Cc1ccccc1)C(=O)N[C@@H](CCC(N)=O)C(=O)N[C@@H](CO)C(=O)N[C@@H](CCCCN)C(=O)N1CCC[C@@H]1C(=O)N[C@@H](CC(N)=O)C(=O)N[C@H](C(=O)N[C@@H](Cc1cnc[nH]1)C(=O)N[C@H](C(=O)N1CCC[C@H]1C(=O)NCC(=O)N[C@@H](Cc1ccc(O)cc1)C(=O)N[C@@H](Cc1ccccc1)C(=O)NC(C)(C)C(=O)N[C@@H](CCCNC(=N)N)C(=O)N[C@@H](CC(C)C)C(=O)NC(C)(C)C(=O)N[C@@H](C)C(=O)N[C@@H](CCCCN)C(=O)N[C@@H](CC(C)C)C(N)=O)C(C)C)C(C)C	99.5	31.2
CC(=O)N[C@@H](Cc1ccccc1)C(=O)N[C@@H](CCC(N)=O)C(=O)N[C@@H](CO)C(=O)N[C@@H](CCCCN)C(=O)N1CCC[C@@H]1C(=O)N[C@@H](CC(N)=O)C(=O)N[C@H](C(=O)N[C@@H](Cc1cnc[nH]1)C(=O)N[C@H](C(=O)N[C@@H](CC(=O)O)C(=O)NCC(=O)N[C@@H](Cc1ccc(O)cc1)C(=O)N[C@@H](Cc1ccccc1)C(=O)N[C@@H](CCC(=O)O)C(=O)N[C@@H](CCCNC(=N)N)C(=O)N[C@@H](CC(C)C)C(=O)NC(C)(C)C(=O)N[C@@H](C)C(=O)N[C@@H](CCCCN)C(=O)N[C@@H](CC(C)C)C(N)=O)C(C)(C)C)C(C)C (Ac-FQSK[dP]NVH[Tle]DGYFERL[Aib]AKL-NH2)	81.9	42.6
CC(=O)N[C@@H](Cc1ccccc1)C(=O)N[C@@H](CCC(N)=O)C(=O)N[C@@H](CO)C(=O)N[C@@H](CCCCN)C(=O)N1CCC[C@@H]1C(=O)N[C@@H](CC(N)=O)C(=O)N[C@H](C(=O)N[C@@H](Cc1cnc[nH]1)C(=O)N[C@H](C(=O)N[C@@H](CC(=O)O)C(=O)NCC(=O)N[C@@H](Cc1ccc(O)cc1)C(=O)N[C@@H](Cc1ccccc1)C(=O)N[C@@H](CCC(=O)O)C(=O)N[C@@H](CCCNC(=N)N)C(=O)N[C@@H](CC(C)C)C(=O)NC(C)(C)C(=O)N[C@@H](C)C(=O)N[C@@H](CCCCN)C(=O)N[C@@H](CC(C)C)C(N)=O)C(C)C)C(C)C	10 to 27	5 to 10
CC(=O)N[C@@H](Cc1ccccc1)C(=O)N[C@@H](CCC(N)=O)C(=O)N[C@@H](CO)C(=O)N[C@@H](CCCCN)C(=O)N1CCC[C@@H]1C(=O)N[C@@H](CC(N)=O)C(=O)N[C@H](C(=O)N[C@@H](Cc1cnc[nH]1)C(=O)N[C@H](C(=O)N[C@@H](CC(=O)O)C(=O)N[C@H](C)C(=O)N[C@@H](Cc1ccc(O)cc1)C(=O)N[C@@H](Cc1ccccc1)C(=O)N[C@@H](CCC(=O)O)C(=O)N[C@@H](CCCNC(=N)N)C(=O)N[C@@H](CC(C)C)C(=O)NC(C)(C)C(=O)N[C@@H]1CSSCCNC(=O)[C@H](CC(C)C)NC(=O)[C@H](CCCCN)NC1=O)C(C)(C)C)C(C)C	12.1	34.3
CC(=O)N[C@@H](Cc1ccccc1)C(=O)N[C@@H](CCC(N)=O)C(=O)N[C@@H](CO)C(=O)N[C@@H](CCCCN)C(=O)N1CCC[C@@H]1C(=O)N[C@@H](CC(N)=O)C(=O)N[C@H](C(=O)N[C@@H](Cc1cnc[nH]1)C(=O)N[C@H](C(=O)N1CCC[C@H]1C(=O)N[C@H](C)C(=O)N[C@@H](Cc1ccc(O)cc1)C(=O)N[C@@H](Cc1ccccc1)C(=O)N[C@@H](CCC(=O)O)C(=O)N[C@@H](CCCNC(=N)N)C(=O)N[C@@H](CC(C)C)C(=O)NC(C)(C)C(=O)N[C@@H](C)C(=O)N[C@@H](CCCCN)C(=O)N[C@@H](CC(C)C)C(N)=O)C(C)C)C(C)C	99.3	27.3
